Laboratory results from US7399868B2, “4-(Heteroaryl-methyl and substituted heteroaryl-methyl)-imidazole-2-thiones acting as alpha2 adrenergic agonists” (Allergan, Inc., priority 2004, dated 2008).

Assays:
[1] = biological target: T1, alpha2B adrenergic receptor (Homo sapiens, UniProt P18089); assay: Receptor Selection and Amplification Technology (RSAT) assay, alpha2B; type: cell-based; settings: ratio of maximal effect to that of standard full agonist brimonidine (UK14304)
T1 construct: expressed in transfected cells; host or cells: NIH-3T3
T1 sequence (P18089 1-450): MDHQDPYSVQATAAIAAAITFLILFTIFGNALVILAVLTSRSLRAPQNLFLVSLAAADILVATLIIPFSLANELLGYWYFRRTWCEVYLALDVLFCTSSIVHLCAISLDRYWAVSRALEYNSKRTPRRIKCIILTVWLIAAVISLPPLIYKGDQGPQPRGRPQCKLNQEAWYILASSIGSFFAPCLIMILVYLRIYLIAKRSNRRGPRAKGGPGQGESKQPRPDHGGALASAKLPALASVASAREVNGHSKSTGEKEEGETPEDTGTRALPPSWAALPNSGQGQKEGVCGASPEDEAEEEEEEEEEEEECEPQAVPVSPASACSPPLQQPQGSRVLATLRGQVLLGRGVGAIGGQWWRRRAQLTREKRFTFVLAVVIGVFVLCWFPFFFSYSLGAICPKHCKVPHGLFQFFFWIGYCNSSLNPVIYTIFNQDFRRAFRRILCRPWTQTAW
Description: (§1) The imidazole-2-thione compounds of the invention are agonists of alpha2 adrenergic receptors. […] Al., 1995, Pharmacol. Toxicol. 76, pp. 308-311 (incorporated herein by reference) and is also described below. Another reference pertinent to this assay is Conklin et al. (1993) Nature 363:274-6, also incorporated herein by reference.
(§2) Receptor Selection and Amplification Technology (RSAT) Assay
The RSAT assay measures a receptor-mediated loss of contact inhibition that results in selective proliferation of receptor-containing cells in a mixed population of confluent cells. The increase in cell number is assessed with an appropriate transfected marker gene such as ∃-galactosidase, the activity of which can be easily measured in a 96-well format. Receptors that activate the G protein, Gq, elicit this response. Alpha2 receptors, which normally couple to Gi, activate the RSAT response when coexpressed with a hybrid Gq protein that has a Gi receptor recognition domain, called Gq/i5.
NIH-3T3 cells are plated at a density of 2×10^6 cells in 15 cm dishes and maintained in Dulbecco's modified Eagle's medium supplemented with 10% calf serum. One day later, cells are cotransfected by calcium phosphate precipitation with mammalian expression plasmids encoding p-SV-β-galactosidase (5-10 μg), receptor (1-2 μg) and G protein (1-2 μg). 40 μg salmon sperm DNA may also be included in the transfection mixture. Fresh media is added on the following day and 1-2 days later, cells are harvested and frozen in 50 assay aliquots. Cells are thawed and 100 μl added to 100 μl aliquots of various concentrations of drugs in triplicate in 96-well dishes. Incubations continue 72-96 hr at 37° C. After washing with phosphate-buffered saline, ∃-galactosidase enzyme activity is determined by adding 200 μl of the chromogenic substrate (consisting of 3.5 mM o-nitrophenyl-β-D-galactopyranoside and 0.5% nonidet P-40 in phosphate buffered saline), incubating overnight at 30° C. and measuring optical density at 420 nm. The absorbance is a measure of enzyme activity, which depends on cell number and reflects a receptor-mediated cell proliferation. The efficacy or intrinsic activity is calculated as a ratio of the maximal effect of the drug to the maximal effect of a standard full agonist for each receptor subtype. Brimonidine, also called UK14304, the chemical structure of which is shown below, is used as the standard agonist for the alpha2A, alpha2B and alpha2C receptors.
The results of the RSAT assay with several exemplary compounds of the invention are disclosed in Table 1 above together with the chemical formulas of these examplary compounds. NA stands for “not active” at concentrations less than 10 micromolar.

[2] = biological target: T2, alpha2C adrenergic receptor (Homo sapiens, UniProt P18825); assay: Receptor Selection and Amplification Technology (RSAT) assay, alpha2C; type: cell-based; settings: ratio of maximal effect to that of standard full agonist brimonidine (UK14304)
T2 construct: expressed in transfected cells; host or cells: NIH-3T3
T2 sequence (P18825 1-462): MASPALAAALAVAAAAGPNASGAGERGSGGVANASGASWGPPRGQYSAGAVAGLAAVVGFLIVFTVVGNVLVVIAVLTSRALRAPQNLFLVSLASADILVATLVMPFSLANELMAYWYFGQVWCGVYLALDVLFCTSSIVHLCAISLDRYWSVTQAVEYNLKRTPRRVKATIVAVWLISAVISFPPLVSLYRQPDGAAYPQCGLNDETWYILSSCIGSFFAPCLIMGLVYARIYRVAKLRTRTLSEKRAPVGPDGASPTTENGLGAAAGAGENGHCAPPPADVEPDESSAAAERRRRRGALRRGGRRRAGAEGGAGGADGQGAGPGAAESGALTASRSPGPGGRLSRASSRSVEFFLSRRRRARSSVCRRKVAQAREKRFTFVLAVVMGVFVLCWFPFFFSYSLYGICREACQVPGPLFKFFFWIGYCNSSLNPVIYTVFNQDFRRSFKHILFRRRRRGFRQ
Description: as §1, §2
The RSAT assay measures a receptor-mediated loss of contact inhibition that results in selective proliferation of receptor-containing cells in a mixed population of confluent cells. The increase in cell number is assessed with an appropriate transfected marker gene such as ∃-galactosidase, the activity of which can be easily measured in a 96-well format. […]
NIH-3T3 cells are plated at a density of 2×10^6 cells in 15 cm dishes and maintained in Dulbecco's modified Eagle's medium supplemented with 10% calf serum. […] After washing with phosphate-buffered saline, ∃-galactosidase enzyme activity is determined by adding 200 μl of the chromogenic substrate (consisting of 3.5 mM o-nitrophenyl-β-D-galactopyranoside and 0.5% nonidet P-40 in phosphate buffered saline), incubating overnight at 30° C. and measuring optical density at 420 nm. The absorbance is a measure of enzyme activity, which depends on cell number and reflects a receptor-mediated cell proliferation. […]

male Sprague-Dawley rats = assay: Sedative activity (exploratory behavior/locomotor) in rats; type: in vivo, rat; settings: intraperitoneally, up to a dose of 1 mg/kg
Method: To test sedation, six male Sprague-Dawley rats are given up to 3 mg/kg of the test compound in a saline or DMSO vehicle by intraperitoneal injection (i.p.). Sedation is graded 30 minutes following administration of the drug by monitoring locomotor skills as follows.
The Sprague-Dawley rats are weighed and 1 ml/kg body weight of an appropriate concentration (ie. 3 mg/ml for a final dose of 3 mg/kg) drug solution is injected intraperitoneally. Typically the test compound is formulated in approximately 10 to 50% DMSO. The results are compared to controls that are injected with 1 ml/kg saline or 10 to 50% DMSO. Rat activity is then determined 30 minutes after injection of the drug solution. Rats are placed in a dark covered chamber and a digicom analyzer (Omnitech Electronic) quantitates their exploratory behavior for a five-minute period. The machine records each time the rat interrupts an array of 32 photoelectric beams in the X and Y orientation.
Effects on Cardiovascular System

[3] = test system: rats with ligated L5 and L6 spinal nerves; assay: Chung model of neuropathic pain (tactile allodynia, von Frey hairs); type: in vivo, rat; settings: 30 min following drug administration, p<0.001 compared to pretreatment
Description: Alleviation of Chronic Pain
A model in accordance with Kim and Chung 1992, Pain […], pp 355-363 (Chung model), for chronic pain (in particular peripheral neuropathy) involves the surgical ligation of the L5 (and optionally the L6) spinal nerves on one side in experimental animals. Rats recovering from the surgery gain weight and display a level of general activity similar to that of normal rats. However, these rats develop abnormalities of the foot, wherein the hindpaw is moderately everted and the toes are held together. More importantly, the hindpaw on the side affected by the surgery appears to become sensitive to pain from low-threshold mechanical stimuli, such as that producing a faint sensation of touch in a human, within about 1 week following surgery. This sensitivity to normally non-painful touch is called “tactile allodynia” and lasts for at least two months. […]
Tactile allodynia is measured prior to and 30 minutes after drug administration using von Frey hairs that are a series of fine hairs with incremental differences in stiffness. […] The applied force has been calculated to range from 0.41 to 15.1 grams. […] The 50% paw withdrawal threshold is determined using the method of Dixon, W. J., Ann. […] The post-drug threshold is compared to the pre-drug threshold and the percent reversal of tactile sensitivity is calculated based on a normal threshold of 15.1 grams. […]

Row | SMILES | Intrinsic Activity Alpha 2B [1] | other results
1 | S=c1[nH]cc(Cn2ccc3ccnc(Cl)c32)[nH]1 [Compound 7, 4-(7-chloro-pyrrolo[2,3-c]pyridin-1-ylmethyl)-1,3-dihydro-imidazole-2-thione] | 1.5 | 
2 | S=c1[nH]cc(Cn2ccc3cccc(Br)c32)[nH]1 [Compound 5, 4-(7-Bromo-indol-1-ylmethyl)-1,3-dihydro-imidazole-2-thione] | 1.01 | Intrinsic Activity Alpha 2C [2]: 0.77; sedative effect (male Sprague-Dawley rats): no sedative effect
3 | S=c1[nH]cc(Cn2ccc3cccc(Cl)c32)[nH]1 [Compound 4, 4-(7-chloro-indol-1-ylmethyl)-1,3-dihydro-imidazole-2-thione] | 1.17 | 
4 | S=c1[nH]cc(Cn2ccc3ccc(Cl)c(Cl)c32)[nH]1 [Compound 6, 4-(6,7-Dichloro-indol-1-ylmethyl)-1,3-dihydro-imidazole-2-thione] | 0.98 | 
5 | Cc1cccc(C(C)c2c[nH]c(=S)[nH]2)n1 (stereo not drawn) [Compound 9, 4-[1-(6-methyl-pyridin-2-yl)-ethyl]-1,3-dihydro-imidazole-2-thione] | 1.16 | 
6 | Cc1cccc2ccn(Cc3c[nH]c(=S)[nH]3)c12 [Compound 2, 4-(7-methyl-indol-1-ylmethyl)-1,3-dihydro-imidazole-2-thione] | 1.01 | 
7 | S=c1[nH]cc(Cn2ccc3c(Cl)cccc32)[nH]1 [Compound 1, 4-(4-chloro-indol-1-ylmethyl)-1,3-dihydro-imidazole-2-thione] | 1.17 | 
8 | Fc1cccc2ccn(Cc3c[nH]c(=S)[nH]3)c12 [Compound 3, 4-(7-fluoro-indol-1-ylmethyl)-1,3-dihydro-imidazole-2-thione] | 1.07 | sedative effect (male Sprague-Dawley rats): no sedative effect
9 | CC(c1c[nH]c(=S)[nH]1)c1coc2ccccc12 (stereo not drawn) [Compound 14, 4-(1-benzofuran-3-yl-ethyl)-1,3-dihydro-imidazole-2-thione] | 1.0 | % Pain Reversal ([3]; 30 μg/kg i.p.): 20%; % Pain Reversal ([3]; 300 μg/kg i.p.): 80%
10 | S=c1[nH]cc(Cn2ccc3ccc(Cl)nc32)[nH]1 [Compound 8, 4-(6-Chloro-pyrrolo[2,3-b]pyridin-1-ylmethyl)-1,3-dihydro-imidazole-2-thione] | 0.76 | 
11 | S=c1[nH]cc(CN2CCCc3ccccc32)[nH]1 [Compound 11, 4-(3,4-dihydro-2H-quinolin-1-ylmethyl)-1,3-dihydro-imidazole-2-thione] | 1.13 | 
12 | S=c1[nH]cc(Cc2cccs2)[nH]1 [Compound 10, 4-thiophen-2-ylmethyl-1,3-dihydro-imidazole-2-thione] | 1.09 | 
13 | CC(c1c[nH]c(=S)[nH]1)c1ccnc2c1CCCC2 (stereo not drawn) [Compound 12, 4-[1-(5,6,7,8-tetrahydro-quinolin-4-yl)-ethyl]-1,3-dihydro-imidazole-2-thione] | 0.99 | 
